Results taken from patent publication US11833160B2, “Ursodeoxycholic acid derivatives as HDAC inhibitors for the treatment of polycystic diseases” (UNIVERSIDAD DEL PAIS VASCO/EUSKAL HERRIKO UNIBERTSITATEA, priority 2017, dated 2023).

Tests used:
OCT1 = biological target: T1, OCT1 (Homo sapiens, UniProt O15245); assay: Uptake study in HepG2 cells overexpressing OCT1; assay type: in vitro ADME
T1 construct: expressed in transfected cells; host or cells: HepG2 cells
T1 sequence (O15245 1-554): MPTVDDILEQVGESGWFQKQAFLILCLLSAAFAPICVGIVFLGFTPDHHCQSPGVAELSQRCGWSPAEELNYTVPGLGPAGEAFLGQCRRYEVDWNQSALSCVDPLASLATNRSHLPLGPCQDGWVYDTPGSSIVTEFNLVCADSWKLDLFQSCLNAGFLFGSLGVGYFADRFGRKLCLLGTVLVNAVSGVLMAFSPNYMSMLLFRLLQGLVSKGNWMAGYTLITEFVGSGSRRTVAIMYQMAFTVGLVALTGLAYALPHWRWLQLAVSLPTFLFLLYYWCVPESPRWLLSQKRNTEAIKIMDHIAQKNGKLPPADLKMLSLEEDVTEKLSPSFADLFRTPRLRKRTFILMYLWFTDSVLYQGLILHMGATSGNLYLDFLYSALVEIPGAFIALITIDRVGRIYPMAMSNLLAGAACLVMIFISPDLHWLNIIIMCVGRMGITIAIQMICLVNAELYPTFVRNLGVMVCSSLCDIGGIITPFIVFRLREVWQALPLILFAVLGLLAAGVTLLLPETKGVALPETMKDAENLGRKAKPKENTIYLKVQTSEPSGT
Text: (§1) The bile acid and organic cation transporters expressed in hepatocytes and cholangiocytes were overexpressed in HepG2 cells (OCT1) and CHO cells (OCT3). The efficacy of the process was confirmed by means of measuring the abundance of mRNA (qPCR), protein (WB), and the correct insertion in the plasma membrane (immunofluorescence). The uptake studies included comparing the uptake efficiency of the compound with respect to dihydroethidium (DHE) in the case of OCT3, and sorafenib in the case of OCT1 (positive controls), as well as the sensitivity of the process to substrate inhibition induced by the joint administration of the compound and quinine. The cell content of all the compounds was determined by means of triple quadrupole HPLC-MS/MS after extraction thereof from the cell system used in each case.

human HDAC4 = biological target: T2, human HDAC4 (Homo sapiens, UniProt P56524); assay: HDAC4 enzymatic activity assay (fluorogenic peptide); assay type: biochemical; details: 10-dose, 3-fold serial dilution, triplicate
T2 construct: amino acids 627-1085 with GST N-terminal tag, MW=75.2 kDa; GST (N); purchased BioMol, Hamburg, Germany; host or cells: baculovirus expression system
T2 sequence (P56524 627-1084 limits assumed): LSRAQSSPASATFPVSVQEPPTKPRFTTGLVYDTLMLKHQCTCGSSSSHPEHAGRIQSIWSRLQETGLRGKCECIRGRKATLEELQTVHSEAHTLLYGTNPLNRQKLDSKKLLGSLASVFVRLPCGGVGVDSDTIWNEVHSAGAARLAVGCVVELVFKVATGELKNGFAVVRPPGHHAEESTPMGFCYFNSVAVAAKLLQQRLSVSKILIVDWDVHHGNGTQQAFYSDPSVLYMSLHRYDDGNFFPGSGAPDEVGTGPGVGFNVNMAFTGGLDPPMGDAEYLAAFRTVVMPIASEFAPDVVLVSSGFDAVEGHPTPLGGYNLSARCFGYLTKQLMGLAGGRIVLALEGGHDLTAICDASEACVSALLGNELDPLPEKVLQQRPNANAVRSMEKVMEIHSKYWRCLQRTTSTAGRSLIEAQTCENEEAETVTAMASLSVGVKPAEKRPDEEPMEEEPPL
Procedure: Peptide substrates: all HDAC assays were performed using acetylated peptide substrates labeled with 7-amino-4-methylcoumarin (AMC): • Substrate for isoforms HDAC1, 2, 3, 6, 10, 11, and HeLa nuclear extract assays: acetylated fluorogenic peptide from p53 residues 379-382 (RHKKAc). • Substrate for isoforms HDAC4, 5, 7, 9: fluorogenic Boc-L-Lys (s-trifluoroacetyl)-AMC. • Substrate for HDAC8 assays: acetylated fluorogenic peptide from p53 residues 379-382 (RHKAcKAc).
50 μl of peptide substrate (see “peptide substrates” section above) and an optimal concentration of the corresponding enzyme (see “enzymes” section above) in the assay buffer at a final DMSO concentration of 1% were incubated in the presence of gradient concentrations of inhibitors (10-dose IC50 mode with 3-fold serial dilution) at 30° C. for 2 hours. The reactions were carried out in a 96-well microplate for fluorometry in a 50 μl reaction volume. After the deacetylation reaction, Fluor-de-Lys-Developer (BioMol Cat. #KI-105) was added to each well to digest the deacetylated substrate, thereby producing the fluorescent signal. The reaction was carried out for 45 minutes at 30° C. with 5% CO2; the fluorescent signal was then measured using an excitation wavelength of 360 nm and an emission wavelength of 460 nm in a microplate-reading fluorometer (GeminiXS, Molecular Devices, Sunnyvale, CA). […]

ASBT = biological target: T3, ASBT (Homo sapiens, UniProt Q12908); assay: Uptake study, transporter ASBT (data not shown); assay type: in vitro ADME
T3 construct: expressed in transfected cells
T3 sequence (Q12908 1-348): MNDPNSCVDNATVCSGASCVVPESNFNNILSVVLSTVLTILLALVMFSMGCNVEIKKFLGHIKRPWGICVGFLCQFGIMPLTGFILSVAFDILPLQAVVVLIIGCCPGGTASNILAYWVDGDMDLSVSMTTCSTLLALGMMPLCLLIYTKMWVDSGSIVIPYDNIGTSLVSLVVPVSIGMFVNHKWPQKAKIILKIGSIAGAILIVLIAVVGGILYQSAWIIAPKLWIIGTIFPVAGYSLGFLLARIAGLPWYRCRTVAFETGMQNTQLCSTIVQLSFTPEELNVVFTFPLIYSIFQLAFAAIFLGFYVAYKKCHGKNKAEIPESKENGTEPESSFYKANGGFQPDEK
Text: as §1

[1] = tested on: normal human cholangiocytes (NHC3); assay: Primary cilium length (cilium staining, confocal microscopy), normal cells; assay type: cell-based; details: after treatment
Procedure: Cilium staining. Cells cultured on cover slips were washed with PBS, fixed with methanol, and blocked for one hour in a blocking buffer at room temperature. The γ-tubulin primary antibodies (1:100; Sigma-Aldrich, St Louis, MO) and acetylated α-tubulin primary antibodies (1:1000; Sigma-Aldrich) or IFT88 primary antibodies (1:100; ProteinTech, Rosemont, IL, USA) were incubated overnight at 4° C. After washing, Alexa Fluor 594 and 488 secondary antibodies were combined with the primary antibodies (Life Technologies, Carlsbad, CA, USA) and incubated for 2 hours at room temperature. The cover slips were placed on slides with Prolong Gold Antifade with Dapi (Invitrogen, Carlsbad, CA, USA). The slides were observed and images were taken using laser scanning confocal microscopy with a 60× objective (NIKON C1si Confocal Spectral Imaging System, NIKON Instruments Co., Melville, NY, USA). The field was magnified 4× to observe individual cilia. The images were opened with EZ-C1 3.90 Freeviewer and a scale bar was added. The images were converted to Tiff files and quantified using ImageJ Software. The scale bar saved in the image was measured and the scale established. Using the freehand tool, the cilia were traced and measurements taken.

[2] = tested on: α-acetylated-tubulin in polycystic human cholangiocytes; assay: Immunoblot of α-acetylated-tubulin; assay type: cell-based; details: different doses
Procedure: The expression of α-acetylated-tubulin (Ac-α-tubulin) and lysine 9-acetylated histone 3 (Ac-H3K9) in polycystic human cholangiocytes in culture was analyzed using Ac-α-tubulin-specific primary antibodies (1:2000, Sigma-Aldrich) and H3K9-specific primary antibodies (1:500, Cell Signaling Technology) and a peroxidase-conjugated secondary antibody (1:5000, Sigma-Aldrich). The expression of each protein was quantified using a chemiluminescence system (Amersham, GE Healthcare). The GAPDH protein was used as loading control.

For `C[C@H](CCC(=O)NCc1ccc(C(=O)NO)cc1)[C@H]1CC[C@H]2[C@@H]3[C@@H](O)C[C@@H]4C[C@H](O)CC[C@]4(C)[C@H]3CC[C@]12C` [Compound Ia], the “effect of quinine (OCT1 inhibitor) on the OCT1 transport” value (OCT1; joint administration with quinine) was “inhibited by the presence of quinine”, the “transport through OCT1” value (OCT1; liver cells (HepG2 overexpressing OCT1), HPLC-MS/MS cell content) was “specifically transported through OCT1” and the IC50 (human HDAC4) was 16.5 µM. The “transport through ASBT” value (ASBT) was “not through ASBT”, the “length of the cilia, normal human cholangiocytes” value [1] was “did not lead to any significant variations” and the “expression of α-acetylated-tubulin” value [2] was “increases significantly and in a dose-dependent manner”.
